Results reported in patent US20040191287A1, “Fumigation process for stored food grains” (priority 2003, published 2004).
Where two headings read alike, the source gives them in different places.

Key:
[1] = test system: S. oryzae mixed-age cultures; conditions: 200 mg/liter, 26 ± 2° C., 19.5 liter tin container with 12 kg of wheat
Procedure: (§3) Further fumigation tests were carried out with allyl acetate at 200 mg/litre and with three different exposure periods of 24, 48 and 72 hours in 19.5 litre tin containers filled with 12 kg of wheat. Mixed- age cultures of R. dominica, S. oryzae and T. castaneum were used as the test insects.
(§4) Mixed-age cultures of S. oryzae and R. dominica were obtained by allowing 300 adults of the individual species to breed in about 1 kg of wheat in a 2-liter glass jar. To obtain mixed- age culture of T. castaneum about 300 adults were released into 1 kg of whole-wheat flour plus 5% dried yeast in a 2-litre glass jar. The insect culture jars were kept under the rearing temperature conditions i.e., 25±1° C. for S. oryzae and T. castaneum and 30±1° C. for R. dominica. The infested grain/flour after an incubation period of 7 weeks was used for the experiment. The cultures were weighed into 50 gm aliquots in 21 cm×14 cm size cloth bags. One set of three test insect bags comprising R. dominica, S. oryzae and T. castaneum were kept at the bottom of the container before filling the grain. […] Another set of three-test insect bags was kept on the top layer of grains. The grain-filled containers were, then, fumigated with allyl acetate for 24, 48 and 72 hours at 26±2° C. The commodity was treated with allyl acetate at the dosage of 200 mg/litre. Required quantity of allyl acetate was measured in 10 and 25 ml measuring cylinder and quickly poured on to 5 gm of absorbent cotton wool kept over the grain layer in the tin container. Immediately after dosing, the container was closed with the lid tightly and sealed along the rim with adhesive tape. At the end of the exposure period, the lid was removed to aerate the commodity and the test insect bags were retrieved and the contents transferred to 300 ml capacity glass bottles. Insect survivors in the samples were recorded at weekly intervals for 8 weeks. Mortality in fumigated batches was calculated based on emergence/survivors in controls.

rat = conditions: 1 hr; cited from earlier work
[2] = test system: R. dominica mixed-age cultures; conditions: 72 hours at 26±2° C., 19.5 liter tin container with 12 kg wheat
Description: Fumigation experiments with allyl acetate have been conducted in 19.5 litre capacity tin containers with mixed- age cultures of R. dominica, S. oryzae and T. castaneum as the test insects.
Mixed-age cultures of S. oryzae and R. dominica were obtained by allowing 300 adults of the individual species to breed in about 1 kg of wheat in a 2-liter glass jar. To obtain mixed- age culture of T. castaneum about 300 adults were released into 1 kg of whole-wheat flour plus 5% dried yeast in a 2-litre glass jar. The insect culture jars were kept under the rearing temperature conditions i.e., 25±1° C. for S. oryzae and T. castaneum and 30±1° C. for R. dominica.
The infested grain/flour after an incubation period of 7 weeks was used for the experiment. The cultures were weighed into 50 gm aliquots in 21 cm×14 cm size cloth bags. One set of three test insect bags comprising R. dominica, S. oryzae and T. castaneum were kept at the bottom of the container before filling the grain.
Another set of three-test insect bags was kept on the top layer of grains. The grain-filled containers were, then, fumigated with allyl acetate for 72 hours at 26±2° C. There were 6 doses ranging from 100 to 800 mg/litre with 3 replicates/dosage along with untreated controls. Required quantity of allyl acetate was measured in 10 and 25 ml measuring cylinder and quickly poured on to 5 gm of absorbent cotton wool kept over the grain layer in the tin container.
Immediately after dosing, the container was closed with the lid tightly and sealed along the rim with adhesive tape. At the end of 72 hour, the lid was removed to aerate the commodity and the test insect bags were retrieved and the contents transferred to 300 ml capacity glass bottles.
Insect survivors in the samples were recorded at weekly intervals for 8 weeks. Mortality in fumigated batches was calculated based on emergence/survivors in controls.

Rhyzopertha dominica = experiment: LD 50 / LD 99 of allyl acetate to adults, probit analysis (Example 2); type: in vivo; conditions: R. dominica adults, 24-hour exposure at 26 ± 2° C.
Procedure: (§1) Assays with allyl acetate against the adults of four species of stored grain insects namely S. oryzae, R. dominica, T. castaneum and Cryptolestes sp. were carried out to determine LD 50 and LD 99 doses. […] Cryptolestes sp. was reared on wheat feed. […] The insects were exposed to different doses of allyl acetate for 24 hour in 0.85-liter desiccators to yield 20-100% mortality. There were 6 replicates for each dose along with equal number of untreated control. […] Mortality of treated insects was assessed at the end of 14 days and it was corrected for natural control mortality. The data for the individual species were subjected to probit analysis following the method of Finney (1971) to arrive at LD 50 and LD 99 values.

Sitophilus oryzae = experiment: as above; type: in vivo; conditions: S. oryzae adults, 24-hour exposure at 26 ± 2° C.
Procedure: as §1

Tribolium castaneum = experiment: as above; type: in vivo; conditions: T. castaneum adults, 24-hour exposure at 26 ± 2° C.
Procedure: as §1

Cryptolestes sp. = experiment: as above; type: in vivo; conditions: 24-hour exposure at 26 ± 2° C.
Procedure: as §1

[3] = cited from earlier work
[4] = test system: T. castaneum mixed-age cultures; experiment: Fumigation in 125 litre plastic drums with 100 kg wheat, with/without perforated tubing (Example 6); type: in vivo, Tribolium castaneum; conditions: for Insect Survivors / mortality at 200 µg/mL: T. castaneum, with perforated tubing, 200 mg/liter, 72 hours, 26 ± 2° C., 125 liter drum, 100 kg wheat; for mortality at 200 µg/mL: 72 h, read-out: % mortality based on survivors in untreated controls
[5] = test system: R. dominica mixed-age cultures; experiment: Mixed-age cultures exposed to allyl acetate in desiccators (Example 3); type: in vivo; conditions: Rhyzopertha dominica, read-out: Mortality (%) (Mean ± SD); for mortality at 25 µg/mL: 25 mg/liter; for mortality at 50 µg/mL: 50 mg/liter; for mortality at 100 µg/mL: 100 mg/liter; for mortality at 150 µg/mL: 150 mg/liter
Procedure: (§2) The grain/ flour containing mixed- age culture of the insect was weighted into 15 cm diameter paper plates in 50 gm aliquots and kept in 0.85 litre desiccators. A 9 cm size Whatman No.1 filter circle was placed in each desiccator to act as evaporating surface for allyl acetate when injected. The insects were exposed to 4 doses of allyl acetate i.e., 25, 50, 100 and 150 mg/liter. Allyl acetate was drawn from the bottle using 100 and 250 micro liter liquid syringes and injected into the desiccators, so that the liquid falls on the filter circle inside the desiccator. There were three replicates each for each dose and for each exposure period. […] Insects emerged from wheat (S. oryzae and R. dominica) or survived in wheat flour (T. castaneum) samples were checked at weekly intervals for 8 weeks. Similarly, counts were made in untreated control batches. Mortality in treated batches was determined by taking into account of survival/emergence in controls as 100%. […] For example, allyl acetate at 25 mg/litre with 48-hour exposure caused 99.8% kill in R. dominica whereas, 85.1 and 86.5% mortality was recorded, respectively, in S. oryzae and T. castaneum.

[6] = test system: T. castaneum mixed-age cultures; experiment: as above; type: in vivo; conditions: Tribolium castaneum, read-out: Mortality (%) (Mean ± SD); for mortality at 25 µg/mL: 25 mg/liter; for mortality at 50 µg/mL: 50 mg/liter; for mortality at 100 µg/mL: 100 mg/liter; for mortality at 150 µg/mL: 150 mg/liter
Procedure: as §2

[7] = test system: S. oryzae mixed-age cultures; experiment: as above; type: in vivo; conditions: Sitophilus oryzae, read-out: Mortality (%) (Mean ± SD); for mortality at 25 µg/mL: 25 mg/liter; for mortality at 50 µg/mL: 50 mg/liter; for mortality at 100 µg/mL: 100 mg/liter; for mortality at 150 µg/mL: 150 mg/liter
Procedure: as §2

[8] = cited from earlier work; remark: listed apart in the source
[9] = test system: R. dominica mixed-age cultures; conditions: 200 mg/liter, 26 ± 2° C., 19.5 liter tin container with 12 kg of wheat
Procedure: as §3, §4

For `C=CCOC(C)=O` [allyl acetate], the “% mortality based on survivors in controls” value (“% mortality based” below) ([1]; exposure period 24 hour) was “(99.9) %”, the “No. of survivors from 50 g lots of mixed-age cultures following treatment” value (“No. of survivors” for short) ([1]; exposure period 24 hour) was 0.33 and the “% mortality based” value ([1]; exposure period 48 hour) was “(99.9) %”. For the same compound, the “No. of survivors” value ([1]; exposure period 48 hour) was 0.33, the “% mortality based” value ([1]; exposure period 72 hour) was “(100) %” and the “No. of survivors” value ([1]; exposure period 72 hour) was 0. For the same compound, the “LC 50 rat inhalation” value (rat) was “LC 50 rat inhalation 1000 ppm/1 hr”, the “% mortality based” value ([2]; 100 mg/liter) was “(100) %” and the “No. of survivors” value ([2]; 100 mg/liter) was 0. For the same compound, the “% mortality based” value ([2]; 150 mg/liter) was “(100) %”, the “No. of survivors” value ([2]; 150 mg/liter) was 0 and the “% mortality based” value ([2]; 200 mg/liter) was “(100) %”. For the same compound, the “No. of survivors” value ([2]; 200 mg/liter) was 0, the “% mortality based” value ([2]; 400 mg/liter) was “(100) %” and the “No. of survivors” value ([2]; 400 mg/liter) was 0. For the same compound, the “% mortality based” value ([2]; 600 mg/liter) was “(100) %”, the “No. of survivors” value ([2]; 600 mg/liter) was 0 and the “% mortality based” value ([2]; 800 mg/liter) was “(100) %”. The “No. of survivors” value ([2]; 800 mg/liter) was 0, the “LD 50 (mg/Liter)” value (Rhyzopertha dominica) was 1.69 (1.30; 2.02) mg/Liter and the “LD 99 (mg/Liter)” value (Rhyzopertha dominica) was 7.56 (5.81; 11.67) mg/Liter. For the same compound, the “LD 50 (mg/Liter)” value (Sitophilus oryzae) was 4.08 (3.70; 4.42) mg/Liter, the “LD 99 (mg/Liter)” value (Sitophilus oryzae) was 12.81 (10.90; 16.15) mg/Liter and the “LD 50 (mg/Liter)” value (Tribolium castaneum) was 6.14 (5.33; 6.80) mg/Liter. The “LD 99 (mg/Liter)” value (Tribolium castaneum) was 11.42 (9.85; 14.92) mg/Liter, the “LD 99 (mg/Liter)” value (Cryptolestes sp.) was 5.44 (4.29; 15.6) mg/Liter and the “Mammalian Toxicity (irritation)” value ([3]; eyes, respiratory system and skin) was “Irritating to eyes, respiratory”. For the same compound, the “Mammalian Toxicity” value ([3]; routes of toxicity: inhalation, contact and ingestion) was “Toxic by inhalation,”, the “Insect Survivors” value ([4]; test insect bag at bottom layer) was 0 and the “Insect Survivors” value ([4]; test insect bag at middle layer) was 0. For the same compound, the “Insect Survivors” value ([4]; test insect bag at top layer) was 0, the mortality at 200 µg/mL ([4]; Tribolium castaneum, bottom layer) was 100% and the mortality at 200 µg/mL ([4]; Tribolium castaneum, middle layer) was 100%. The mortality at 200 µg/mL ([4]; Tribolium castaneum, top layer) was 100%, the “dosage for 100% kill of all stages” value ([4]; Tribolium castaneum, all stages, preferred exposure period 72 hours) was 200 mg per litre of space and the mortality at 25 µg/mL ([5]; 24 hours exposure) was 99.8 ± 0.3%. The mortality at 50 µg/mL ([5]; 24 hours exposure) was 100%, the mortality at 100 µg/mL ([5]; 24 hours exposure) was 100% and the mortality at 150 µg/mL ([5]; 24 hours exposure) was 100%. It also gave a mortality at 25 µg/mL ([5]; 48 hours exposure) of 99.8%, a mortality at 50 µg/mL ([5]; 48 hours exposure) of 99.8 ± 0.4% and a mortality at 100 µg/mL ([5]; 48 hours exposure) of 100%. It also gave a mortality at 150 µg/mL ([5]; 48 hours exposure) of 100%, a mortality at 25 µg/mL ([5]; 120 hours exposure) of 99.8 ± 0.5% and a mortality at 50 µg/mL ([5]; 120 hours exposure) of 100%. For the same compound, the mortality at 100 µg/mL ([5]; 120 hours exposure) was 100%, the mortality at 150 µg/mL ([5]; 120 hours exposure) was 100% and the mortality at 25 µg/mL ([6]; 24 hours exposure) was 0%. The mortality at 50 µg/mL ([6]; 24 hours exposure) was 82.6 ± 17.8%, the mortality at 100 µg/mL ([6]; 24 hours exposure) was 98.4 ± 3.3% and the mortality at 150 µg/mL ([6]; 24 hours exposure) was 99.2 ± 1.7%. The mortality at 25 µg/mL ([6]; 48 hours exposure) was 86.5%, the mortality at 50 µg/mL ([6]; 48 hours exposure) was 100% and the mortality at 100 µg/mL ([6]; 48 hours exposure) was 100%. For the same compound, the mortality at 150 µg/mL ([6]; 48 hours exposure) was 100%, the mortality at 25 µg/mL ([6]; 120 hours exposure) was 51.4 ± 11.6% and the mortality at 50 µg/mL ([6]; 120 hours exposure) was 73.4 ± 17.7%. The mortality at 100 µg/mL ([6]; 120 hours exposure) was 97.3 ± 3.2%, the mortality at 150 µg/mL ([6]; 120 hours exposure) was 100% and the mortality at 25 µg/mL ([7]; 24 hours exposure) was 87.9 ± 4.1%. It also gave a mortality at 50 µg/mL ([7]; 24 hours exposure) of 98 ± 1.5%, a mortality at 100 µg/mL ([7]; 24 hours exposure) of 100% and a mortality at 150 µg/mL ([7]; 24 hours exposure) of 100%. It also gave a mortality at 25 µg/mL ([7]; 48 hours exposure) of 85.1%, a mortality at 50 µg/mL ([7]; 48 hours exposure) of 98.9 ± 1.3% and a mortality at 100 µg/mL ([7]; 48 hours exposure) of 100%. The mortality at 150 µg/mL ([7]; 48 hours exposure) was 100%, the mortality at 25 µg/mL ([7]; 120 hours exposure) was 98.8 ± 1.8% and the mortality at 50 µg/mL ([7]; 120 hours exposure) was 100%. For the same compound, the mortality at 100 µg/mL ([7]; 120 hours exposure) was 100%, the mortality at 150 µg/mL ([7]; 120 hours exposure) was 100% and the “Vapour pressure at 27° C. (mm Hg)” value ([8]; 27° C.) was 6 mm Hg. The Solubility in water [8] was “Insoluble”, the “% mortality based” value ([9]; exposure period 24 hour) was “(100) %” and the “No. of survivors” value ([9]; exposure period 24 hour) was 0. For the same compound, the “% mortality based” value ([9]; exposure period 48 hour) was “(100) %”, the “No. of survivors” value ([9]; exposure period 48 hour) was 0 and the “% mortality based” value ([9]; exposure period 72 hour) was “(100) %”. For the same compound, the “No. of survivors” value ([9]; exposure period 72 hour) was 0.
